Data: patent publication US11911396B2, “Use of compound in preparation of drug for treating cerebral small vessel disease” (GUANGZHOU CELLPROTEK PHARMACEUTICAL CO., LTD, priority 2017, dated 2024)

Legend:
Format in all cases: in vivo, cynomolgus monkeys
[1] = system: CD163; experiment: Western blot of CD163 in prefrontal cortex brain tissue, acute hypobaric hypoxia model; conditions: FIGS. 4A and 4B
Description: FIG. 4. Triol enhanced the clearance of free hemoglobin in brain tissue by up-regulating CD163 and Heme Oxygenase-1 (HO-1) protein levels. A. Protein expression of hemoglobin scavenger receptor CD163 and heme oxygenase HO-1 in the brain tissue of the prefrontal cortex of cynomolgus monkeys; B. Statistics of protein relative gray scan values. The gray value was obtained by scanning with Image Lab software, and the relative value was obtained after normalizing with α-Tubulin. NN: Normobaric Normoxia group (N=3); HH: Hypobaric Hypoxia group (N=3); HH+Triol: Hypobaric Hypoxia with Triol administration group (N=3); HH+PROG: Hypobaric Hypoxia with progesterone administration group (N=3). […]
(§1) 1) Preparation of protein samples (see the instructions of M-PER protein lysate): After the cells had been processed for the specified time, the medium was aspirated and then washed with 4° C. pre-chilled PBS (0.01M pH7.2˜7.3) for 3 times. […] 2) BCA protein quantification (see the instructions of BCA protein quantification kit): corresponding components were added to a 96-well detection plate by the ratio of quantification reagent A solution:B solution:ddH2O:protein=100:2:7.5:5, and albumin standards diluted in gradient concentration were added to draw a standard curve. […] After the reaction, the absorbance of each well at a wavelength of 562 nm was detected using a microplate reader. […]

[2] = system: IL-1β; experiment: Western blot of IL-1β in prefrontal cortex brain tissue, acute hypobaric hypoxia model; conditions: FIGS. 3A and 3B
Description: (§2) FIG. 3. […] A. Protein expression of inflammatory factors IL-6, IL-1β and TNF-α in the brain tissue of the prefrontal cortex of cynomolgus monkeys; B. Statistics of protein relative gray scan values. NN: Normobaric Normoxia group (N=3); HH: Hypobaric Hypoxia group (N=3); HH+Triol: Hypobaric Hypoxia with Triol administration group (N=3); HH+PROG: Hypobaric Hypoxia with control drug administration group (N=3). The gray value was obtained by scanning with Image Lab software, and the relative value was obtained after normalizing with α-Tubulin. One-way ANOVA analysis and Dunnutt's t test were used to perform statistical tests, and in the latter each group was compared with the HH group, *, p<0.05; **, p<0.01.
as §1

[3] = system: IL-6; experiment: Western blot of IL-6 in prefrontal cortex brain tissue, acute hypobaric hypoxia model; conditions: FIGS. 3A and 3B
Description: as §2, §1

In the case of `C[C@@]12CCCC1C1C[C@@H](O)[C@@]3(O)C[C@@H](O)CC[C@]3(C)C1CC2` (stereo partly drawn) [Triol, 5α-androst-3β,5,6β-triol], the “down-regulation of CD163 expression caused by acute hypobaric hypoxia” value [1] is reported as “significantly restored”, the “expression level of IL-1β” value [2] is reported as “significantly reduced” and the “expression level of IL-6” value [3] is reported as “significantly reduced”.
